# Results published in the supplement of paper PMC4862054.
# Key:
# Details in all cases: incubation time: 72 h
# [1] = system: HCC1599; test: normalised response (% of control), CellTiter-Glo; higher = more viable cells (100 = DMSO, 0 = benzethonium chloride kill control)
# Method in brief: (§1)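 Each value is the plate-normalised signal at one concentration of the series. Breast cancer cell lines (20 µl suspension) were incubated 72 h in 384-well plates with compound at 5 concentrations in 10-fold steps over a compound-specific 10,000-fold range. CellTox Green and then CellTiter-Glo were read, and each plate was scaled to 0.1 % DMSO (100) and a positive kill control (0).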
# [2] = system: MDA-MB-436; test: as above
# Method in brief: as §1
# [3] = system: HCC1143; test: as above
# Method in brief: as §1
# [4] = system: MDA-MB-468; test: as above
# Method in brief: as §1
# [5] = system: HCC1599; test: drug sensitivity score (DSS), CellTiter-Blue viability (DSS (AUC-based score)); higher = stronger viability inhibition; extreme values may be limits of the assay
# Protocol: (§2)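 DSRT with the CellTiter-Blue (resazurin reduction) viability readout, fluorescence 560/590 nm, 72 h incubation. Plates were normalised to DMSO and benzethonium chloride controls. DSS is computed from the area under the fitted dose-response curve (5 or 9 concentrations).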
# [6] = system: SK-BR-3; test: as above
# Protocol: as §2
# [7] = system: CAL-120; test: as above
# Protocol: as §2
# [8] = system: MDA-MB-436; test: as above
# Protocol: as §2
# [9] = system: MDA-MB-453; test: as above
# Protocol: as §2
# [10] = system: CAL-85-1; test: as above
# Protocol: as §2
# [11] = system: HCC1937; test: as above
# Protocol: as §2
# [12] = system: MFM-223; test: as above
# Protocol: as §2
# [13] = system: BT-549; test: as above
# Protocol: as §2
# [14] = system: HCC1143; test: as above
# Protocol: as §2
# [15] = system: MDA-MB-468; test: as above
# Protocol: as §2
# [16] = system: BT-474; test: as above
# Protocol: as §2
# [17] = system: CAL-51; test: as above
# Protocol: as §2
# [18] = system: Hs578T; test: as above
# Protocol: as §2
# [19] = system: MDA-MB-231; test: as above
# Protocol: as §2
# [20] = system: DU-4475; test: as above
# Protocol: as §2
# [21] = system: HDQ-P1; test: as above
# Protocol: as §2
# [22] = system: CAL-148; test: as above
# Protocol: as §2
Structure (SMILES),normalised response [1],normalised response [2],normalised response [3],normalised response [4],drug sensitivity score [5],drug sensitivity score [6],drug sensitivity score [7],drug sensitivity score [8],drug sensitivity score [9],drug sensitivity score [10],drug sensitivity score [11],drug sensitivity score [12],drug sensitivity score [13],drug sensitivity score [14],drug sensitivity score [15],drug sensitivity score [16],drug sensitivity score [17],drug sensitivity score [18],drug sensitivity score [19],drug sensitivity score [20],drug sensitivity score [21],drug sensitivity score [22]
COc1cccc2c1C(=O)c1c(O)c3c(c(O)c1C2=O)C[C@@](O)(C(=O)CO)C[C@@H]3O[C@H]1C[C@H](N)[C@H](O)[C@H](C)O1 [Doxorubicin] (1000 nM),33.2%,28.6%,46.2%,7.26%,,,,,,,,,,,,,,,,,,
C[C@]1(c2nc3c(C(N)=O)cccc3[nH]2)CCCN1 [Veliparib] (10000 nM),77.1%,94.5%,91.6%,75.5%,,,,,,,,,,,,,,,,,,
S=c1[nH]cnc2nc[nH]c12 [Mercaptopurine] (10000 nM),27.5%,85.8%,101%,96.8%,,,,,,,,,,,,,,,,,,
CS(=O)(=O)c1ccc(C(=O)Nc2ccc(Cl)c(-c3ccccn3)c2)c(Cl)c1 [Vismodegib],,,,,0,0,0,4.6,0,0,1.01,0,0,0,0,0,0,0,0,0,0,0
CN1CCC(COc2cnc(-c3cccc(Cn4nc(-c5cccc(C#N)c5)ccc4=O)c3)nc2)CC1,,,,,0,6.8,3.44,5.04,4.88,3.23,4.45,2.41,6.21,0,5.78,3.92,3.38,0,5.87,2.66,2.71,2.07
C=CCNC1=C2C[C@@H](C)C[C@H](OC)[C@H](O)[C@@H](C)/C=C(\C)[C@H](OC(N)=O)[C@@H](OC)/C=C\C=C(/C)C(=O)NC(=CC1=O)C2=O [Tanespimycin] (10000 nM),54.5%,41.8%,32.6%,25.5%,,,,,,,,,,,,,,,,,,
COc1cc(Nc2ncc3c(n2)-c2ccc(Cl)cc2C(c2c(F)cccc2OC)=NC3)ccc1C(=O)O [MLN8237],,,,,2.39,16.7,10.7,6.09,16.6,11.9,17.8,9.51,8.32,10.4,15.8,4.4,18.1,14.7,10.4,22.9,14.2,15
Clc1ccc(C(c2ccccc2Cl)C(Cl)Cl)cc1 (stereo not given) [Mitotane] (10000 nM),113%,97.4%,98.7%,96.2%,,,,,,,,,,,,,,,,,,
Clc1ccc(C(c2ccccc2Cl)C(Cl)Cl)cc1 (stereo not given) [Mitotane],,,,,0,0,0,0,0,0,0,0,0,0,0,0,0,0,0,0,0,0
CN1CCC(COc2cnc(-c3cccc(Cn4nc(-c5cccc(C#N)c5)ccc4=O)c3)nc2)CC1 (1000 nM),85.6%,84.4%,97.8%,90.3%,,,,,,,,,,,,,,,,,,
COc1cccc2cc(-c3nc([C@H]4CC[C@H](C(=O)O)CC4)n4ncnc(N)c34)[nH]c12 [OSI-027] (10000 nM),74.2%,45.6%,46.5%,33.4%,,,,,,,,,,,,,,,,,,
